Source: PubChem BioAssay (NCI)
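1) Cells in 96-well plates. 2) Compound, 48 h, 5 concentrations. 3) Linear interpolation between surrounding doses. 4) Unreached endpoint = highest concentration. Here, GI50 denotes the concentration required for 50% inhibition of growth. TGI: concentration producing complete growth inhibition.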

Legend:
Test in all cases: NCI-60 cell line screen, 48 h; in the data active = GI50 below about 0.43 µM; inactive = the rest
[1] = system: SF-268 CNS
[2] = system: OVCAR-8 ovarian
[3] = system: ACHN renal
[4] = system: UACC-257 melanoma
[5] = system: SK-OV-3 ovarian
[6] = system: HCT-15 colon
[7] = system: SK-MEL-2 melanoma
[8] = system: T-47D breast
[9] = system: A549 NSCLC
[10] = system: MALME-3M melanoma
[11] = system: CAKI-1 renal
[12] = system: TK-10 renal
[13] = system: M14 melanoma
[14] = system: NCI-H226 lung
[15] = system: COLO 205 colon
[16] = system: SR leukemia
[17] = system: RXF 393 renal
[18] = system: OVCAR-4 ovarian
[19] = system: MOLT-4 leukemia
[20] = system: PC-3 prostate
[21] = system: NCI-H522 lung
[22] = system: SNB-19 CNS
[23] = system: RPMI-8226 leukemia
[24] = system: SW-620 colon
[25] = system: SNB-75 CNS
[26] = system: NCI/ADR-RES ovarian
[27] = system: SK-MEL-28 melanoma
[28] = system: U251 CNS
[29] = system: HT29 colon
[30] = system: K-562 leukemia
[31] = system: SN12C renal
[32] = system: SF-539 CNS
[33] = system: DU-145 prostate
[34] = system: LOX IMVI melanoma
[35] = system: SF-295 CNS
[36] = system: IGROV1 ovarian
[37] = system: EKVX NSCLC
[38] = system: OVCAR-3 ovarian
[39] = system: SK-MEL-5 melanoma
[40] = system: OVCAR-5 ovarian
[41] = system: 786-0 renal
[42] = system: MDA-MB-435
[43] = system: HS 578T breast
[44] = system: KM12 colon
[45] = system: BT-549 breast
[46] = system: HOP-92 NSCLC
[47] = system: HCT-116 colon
[48] = system: NCI-H23 lung
[49] = system: UO-31 renal
[50] = system: CCRF-CEM leukemia
[51] = system: MDA-MB-231 breast
[52] = system: UACC-62 melanoma
[53] = system: HL-60(TB) leukemia
[54] = system: MCF7 breast
[55] = system: NCI-H460 lung
[56] = system: A498 renal
[57] = system: HOP-62 NSCLC
[58] = system: HCC-2998 colon

Oc1cc2ccccc2cc1-c1n[nH]c(=S)n1-c1ccc(Cl)cc1
43.5 µM: TGI [23]
67.1 µM: TGI [17]
28.8 µM: TGI [52]
60.3 µM: TGI [48]
49.8 µM: TGI [41]
85 µM: TGI [14]
39.4 µM: TGI [11]
50.8 µM: TGI [32]
76.3 µM: TGI [29]
63 µM: TGI [12]
55.2 µM: TGI [31]
90.9 µM: TGI [28]
71.8 µM: TGI [49]
38.2 µM: TGI [39]
35.2 µM: TGI [21]
7.67 µM: TGI [36]
64.1 µM: TGI [26]
90.2 µM: TGI [43]
39.3 µM: TGI [7]
50.2 µM: TGI [34]
38.3 µM: TGI [51]
32.9 µM: TGI [1]
> 100 µM: TGI [2] | TGI [3] | TGI [5] | TGI [6] | TGI [8] | TGI [9] | TGI [10] | TGI [13] | TGI [15] | TGI [16] | TGI [18] | TGI [19] | TGI [20] | TGI [22] | TGI [24] | TGI [25] | TGI [27] | TGI [30] | TGI [33] | TGI [35] | TGI [37] | TGI [38] | TGI [42] | TGI [44] | TGI [45] | TGI [46] | TGI [47] | TGI [50] | TGI [53]
56.7 µM: TGI [4]
inactive: GI50 [1] 6.46 µM | GI50 [2] 38.4 µM | GI50 [3] 25.8 µM | GI50 [4] 18.7 µM | GI50 [5] 28.6 µM | GI50 [6] 7.96 µM | GI50 [7] 12.5 µM | GI50 [8] 31.6 µM | GI50 [9] 25.3 µM | GI50 [10] 8.85 µM | GI50 [11] 12.5 µM | GI50 [12] 18.9 µM | GI50 [13] 15.1 µM | GI50 [14] 23.7 µM | GI50 [15] 41.7 µM | GI50 [16] 3.08 µM | GI50 [17] 21.5 µM | GI50 [18] 40.5 µM | GI50 [19] 22.7 µM | GI50 [20] 15.7 µM | GI50 [21] 5.65 µM | GI50 [22] 25.4 µM | GI50 [23] 12.1 µM | GI50 [24] 23 µM | GI50 [25] 28.7 µM | GI50 [26] 13.8 µM | GI50 [27] 36.4 µM | GI50 [28] 13 µM | GI50 [29] 24.6 µM | GI50 [30] > 100 µM | GI50 [31] 10.8 µM | GI50 [32] 15.3 µM | GI50 [33] 31.2 µM | GI50 [34] 11.2 µM | GI50 [35] 13.1 µM | GI50 [36] 1.31 µM | GI50 [37] 28.7 µM | GI50 [38] 20.3 µM | GI50 [39] 14.4 µM | GI50 [40] 27.6 µM | GI50 [41] 16.1 µM | GI50 [42] 4.66 µM | GI50 [43] 12.4 µM | GI50 [44] 9.14 µM | GI50 [45] 16.2 µM | GI50 [46] 46 µM | GI50 [47] 19.3 µM | GI50 [48] 20 µM | GI50 [49] 23.2 µM | GI50 [50] 21.9 µM | GI50 [51] 8.88 µM | GI50 [52] 7.88 µM | GI50 [53] 19 µM
95.6 µM: TGI [40]

COc1cc2c3c(n(CCCCl)c(=O)c2cc1OC)-c1ccc(C#N)cc1C3=O
15.8 µM: TGI [25]
44 µM: TGI [5]
> 100 µM: TGI [1] | TGI [54] | TGI [55] | TGI [4] | TGI [8] | TGI [9] | TGI [13] | TGI [15] | TGI [18] | TGI [19] | TGI [20] | TGI [22] | TGI [23] | TGI [24] | TGI [26] | TGI [27] | TGI [29] | TGI [30] | TGI [31] | TGI [33] | TGI [39] | TGI [40] | TGI [42] | TGI [44] | TGI [47] | TGI [49] | TGI [50]
58.8 µM: TGI [56]
2.83 µM: TGI [28]
30.9 µM: TGI [11]
20.5 µM: TGI [6]
34.4 µM: TGI [2]
67.6 µM: TGI [37]
30.2 µM: TGI [57]
24.5 µM: TGI [7]
inactive: GI50 [1] 19.5 µM | GI50 [2] 6.3 µM | GI50 [54] 7.3 µM | GI50 [55] 10.8 µM | GI50 [4] 54.9 µM | GI50 [5] 15.2 µM | GI50 [6] 3.31 µM | GI50 [7] 4.93 µM | GI50 [8] > 100 µM | GI50 [9] 29.5 µM | GI50 [10] 2.49 µM | GI50 [11] 10.6 µM | GI50 [12] 13.5 µM | GI50 [13] 9.24 µM | GI50 [14] 16.7 µM | GI50 [15] 43.3 µM | GI50 [17] 3.85 µM | GI50 [18] 88.7 µM | GI50 [19] 1.68 µM | GI50 [20] 32.4 µM | GI50 [21] 6.63 µM | GI50 [56] 16.1 µM | GI50 [22] 22.1 µM | GI50 [23] 3.97 µM | GI50 [24] 0.996 µM | GI50 [25] 4 µM | GI50 [26] 22.4 µM | GI50 [57] 14.7 µM | GI50 [27] > 100 µM | GI50 [28] 0.446 µM | GI50 [29] > 100 µM | GI50 [30] > 100 µM | GI50 [31] 22.7 µM | GI50 [32] 7.18 µM | GI50 [33] 10.7 µM | GI50 [34] 3.43 µM | GI50 [58] 4.49 µM | GI50 [35] 5 µM | GI50 [36] 3.64 µM | GI50 [37] 7.99 µM | GI50 [38] 12.9 µM | GI50 [39] 90.9 µM | GI50 [40] 33.6 µM | GI50 [41] 14.4 µM | GI50 [42] > 100 µM | GI50 [43] 3.32 µM | GI50 [44] > 100 µM | GI50 [45] 5.5 µM | GI50 [46] 16.2 µM | GI50 [47] 15.2 µM | GI50 [48] 8.38 µM | GI50 [49] 30.2 µM | GI50 [50] 3.59 µM | GI50 [51] 1.67 µM | GI50 [52] 6.81 µM
22.5 µM: TGI [52]
19.4 µM: TGI [34]
28.2 µM: TGI [32]
18.8 µM: TGI [35]
94.9 µM: TGI [14]
74.4 µM: TGI [10]
59.2 µM: TGI [21]
10.2 µM: TGI [51]
56.8 µM: TGI [46]
23.1 µM: TGI [36]
29.4 µM: TGI [41]
18.1 µM: TGI [17]
23.6 µM: TGI [45]
30.1 µM: TGI [38]
25.9 µM: TGI [58]
29.3 µM: TGI [12]
20.9 µM: TGI [48]
21.9 µM: TGI [43]
